EPA's ToxRefDB 2

Experiments:
rat [1] = details: Combined chronic toxicity/carcinogenicity; sprague dawley; Oral; Feed; dose end: 24 month; group: systemic; systemic / organ weight / liver / relative to body weight + systemic / pathology microscopic / liver / hypertrophy + systemic / pathology …
dog [2] = details: Chronic toxicity; beagle; Oral; Feed; dose end: 52 week; group: systemic; systemic / clinical chemistry / alkaline phosphatase (alp/alk) / alkaline phosphatase (alp/alk) + systemic / organ weight / liver / absolute…
rat [3] = details: Subchronic oral toxicity in rodents, sprague dawley, Feed, dose end: 13 week, group: systemic, systemic / clinical chemistry / cholesterol / cholesterol + systemic / organ weight / liver / relative to body weight + systemic / pathology…
mouse [4] = details: Carcinogenicity, b6c3f1, Oral, Feed, dose end: 24 month, group: systemic
rat [5] = details: Multigenerational reproductive toxicity study, sprague dawley, Oral, Feed, dose end: 2 generation
mouse [6] = details: Combined chronic toxicity/carcinogenicity; b6c3f1; Oral; Feed; dose end: 24 month; group: systemic; systemic / pathology microscopic / liver / accentuated lobular pattern
rat [7] = details: Subchronic oral toxicity in rodents, fischer, Feed, dose end: 90 day, group: systemic
dog [8] = details: Chronic toxicity; beagle; Oral; Gavage/Intubation; dose end: 52 week; group: systemic; systemic / in life observation / body weight / body weight gain + systemic / in life observation / clinical signs / emesis + systemic / in …
[9] = systemic / pathology gross / liver / enlarged + systemic / pathology gross / liver / mass + systemic / pathology gross / liver / nodule(s…
[10] = group: offspring, systemic / in life observation / body weight / offspring (pup) weight
[11] = group: parental, systemic / in life observation / body weight / body weight + systemic / in life observation / food consumption / food consumption + systemic…
[12] = systemic / organ weight / liver / relative to body weight + systemic / organ weight / kidney / relative to body weight

SMILES: C#CC(C)(C)NC(=O)c1cc(Cl)cc(Cl)c1 [Propyzamide]
- LEL (rat [1]): 48.8 mg/kg/day
- LOAEL (rat [1]): 48.8 mg/kg/day
- NEL (rat [1]): 10.1 mg/kg/day
- NOAEL (rat [1]): 10.1 mg/kg/day
- LEL (dog [2]): 33.1 mg/kg/day
- LOAEL (dog [2]): 33.1 mg/kg/day
- NEL (dog [2]): 11.9 mg/kg/day
- NOAEL (dog [2]): 11.9 mg/kg/day
- LEL (rat [3]): 60 mg/kg/day
- LOAEL (rat [3]): 60 mg/kg/day
- NEL (rat [3]): 12.3 mg/kg/day
- NOAEL (rat [3]): 12.3 mg/kg/day
- LOAEL (mouse [4]; systemic / pathology gross / liver / enlarged + systemic / pathology gross / liver / mass + systemic / pathology gross / liver / nodule(s)): 75 mg/kg/day
- LEL (mouse [4]; [9]): 75 mg/kg/day
- NEL (mouse [4]; [9]): 15 mg/kg/day
- NOAEL (mouse [4]; [9]): 15 mg/kg/day
- LEL (rat [5]; [10]): 114 mg/kg/day
- LOAEL (rat [5]; [10]): 114 mg/kg/day
- NEL (rat [5]; [10]): 15.4 mg/kg/day
- NOAEL (rat [5]; [10]): 15.4 mg/kg/day
- LEL (rat [5]; [11]): 114 mg/kg/day
- LOAEL (rat [5]; [11]): 114 mg/kg/day
- NEL (rat [5]; [11]): 15.4 mg/kg/day
- NOAEL (rat [5]; [11]): 15.4 mg/kg/day

SMILES: Oc1ccccc1-c1ccccc1 [2-Phenylphenol]
- LEL (mouse [6]): 250 mg/kg/day
- LOAEL (mouse [6]): 250 mg/kg/day
- NEL (mouse [6]): < 250 mg/kg/day
- NOAEL (mouse [6]): < 250 mg/kg/day
- LOAEL (rat [7]; systemic / in life observation / body weight / body weight + systemic / in life observation / body weight / body weight gain): 763 mg/kg/day
- NOAEL (rat [7]; systemic / in life observation / body weight / body weight + systemic / in life observation / body weight / body weight gain + systemic / in…): 377 mg/kg/day
- LEL (rat [7]; [12]): 377 mg/kg/day
- NEL (rat [7]; [12]): < 377 mg/kg/day
- LEL (dog [8]): 300 mg/kg/day
- LOAEL (dog [8]): 300 mg/kg/day
- NEL (dog [8]): 100 mg/kg/day
- NOAEL (dog [8]): 100 mg/kg/day
